This note sets out measurements from US12398139B2, “Modulators of AMPA receptor signaling” (Centre for Addiction and Mental Health, priority 2019, dated 2025).

Assay [1] concerns HEK-293 cells expressing GAPDH and GluR2. Briefly: AMPA mediated cell-death assay (CellTox Green Cytotoxicity Assay). Format: cell-based. Particulars: Homo sapiens, HEK293, AMPA 500 μM, CTZ 100 μM, CellTox Green fluorescence, read-out: Potency, inhibition of AMPA-mediated neurotoxicity (IC50, concentration at which 50% of cell death was prevented). How it is done: The ability of compounds to inhibit AMPA-mediated neurotoxicity was determined using the CellTox™ Green Cytotoxicity Assay (G8743) kit from Promega. In this assay, GAPDH and GluR2 are expressed in HEK-293 cells. AMPA (500 μM) was added to induce an AMPAR-mediated cell death signalling cascade. This is initiated by the GAPDH-GluR2 complex formation followed by the nuclear translocation of the complex, where it activates the p53-mediated cell death pathway. The presence of a compound which can block dimerization of GAPDH and GluR2 will prevent the nuclear translocation and the cell death and, thus this assay is an effective measure of the ability of a compound to prevent AMPA-mediated neurotoxicity and thus show therapeutic benefit in the treatment of MS.
The assay was performed as per the manufacture's instruction. Briefly, 293 cells stably expressing GluR1 and GluR2VENUS were transfected with pcDNA-RluC-GAPDH. AMPA (500 μM) were added to induce the cell death. CTZ (100 μM) was added to prevent AMPAR desensitization. Candidate molecules were added before the AMPA treatment to test its protective effect. Untreated cells and AMPA treated group were used as negative and positive control respectively. CellTox™ Green Reagent (˜5×) was then added to achieve a final concentration of 1× and cells were incubated at room temperature for 15 minutes (shielded from ambient light). The fluorescence intensity at 485-500 nmEx/520-530 nmEm was then measured and calculated as the percentage value of the positive control. The concentration at which 50% of cell death was prevented (IC50) was determined for each compound.
The potency was measured using the cell death assay described above.

For the next assay, the target named is T1, GluR2/GAPDH complex (Homo sapiens, UniProt P42262).
T1 construct: host or cells: HEK293 cells stably transfected with GluR2-VENUS (lysate)
T1 sequence (P42262 25-883, species assumed, one chain of several): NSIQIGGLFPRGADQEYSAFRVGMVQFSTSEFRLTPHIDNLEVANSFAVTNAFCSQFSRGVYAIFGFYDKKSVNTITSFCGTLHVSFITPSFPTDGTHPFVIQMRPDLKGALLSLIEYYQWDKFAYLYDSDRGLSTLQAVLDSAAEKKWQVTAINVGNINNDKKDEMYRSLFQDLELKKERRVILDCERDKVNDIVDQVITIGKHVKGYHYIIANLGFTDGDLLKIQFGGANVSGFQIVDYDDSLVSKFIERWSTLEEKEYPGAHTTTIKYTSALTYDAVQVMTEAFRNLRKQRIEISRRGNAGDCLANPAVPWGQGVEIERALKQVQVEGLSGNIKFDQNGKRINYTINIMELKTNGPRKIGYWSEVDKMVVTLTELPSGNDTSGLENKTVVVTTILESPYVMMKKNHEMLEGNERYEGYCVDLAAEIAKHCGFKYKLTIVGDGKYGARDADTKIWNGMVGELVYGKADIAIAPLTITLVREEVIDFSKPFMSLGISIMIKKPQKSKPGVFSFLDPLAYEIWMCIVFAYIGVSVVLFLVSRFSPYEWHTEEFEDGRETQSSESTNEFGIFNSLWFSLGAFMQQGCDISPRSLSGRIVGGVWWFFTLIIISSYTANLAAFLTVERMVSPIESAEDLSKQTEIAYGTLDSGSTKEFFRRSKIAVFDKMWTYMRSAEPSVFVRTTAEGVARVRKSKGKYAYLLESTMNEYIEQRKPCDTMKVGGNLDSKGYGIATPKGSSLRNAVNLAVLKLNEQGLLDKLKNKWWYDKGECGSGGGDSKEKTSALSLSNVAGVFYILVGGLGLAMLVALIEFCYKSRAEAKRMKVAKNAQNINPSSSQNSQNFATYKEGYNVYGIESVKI
Put plainly: Surface plasmon resonance target engagement assay (competitive GluR2-Venus affinity with GAPDH). As to conditions: SPR, captured GluR2-VENUS, 100 nM GAPDH peptide, compound top concentration 10 μM; read-out: Potency, GluR2 Binding Affinity (competitive inhibition of GluR2-GAPDH interaction). How it is done:
This is one of the most commonly used techniques to study modulation of protein-protein interactions by small molecule ligands, providing real-time measurement of binding affinities and association/dissociation kinetics of complexes (compound/protein) in a label-free environment. The ability of our lead compound to disrupt the interaction of GluR2/GAPDH complex was measured by the binding affinity. Compounds were analyzed for competitive GluR2-Venus protein affinity (with GAPDH recombinant protein) using a Reichert 2SPR system. The surface was first charged with nickel (500 μM NiCl2 in HBS-P buffer for 300 s at a flow rate of 5 μL/min). The dextran surface was then activated with a 1:1 mixture of N-ethyl-N-dimethylaminopropylcarbodiimide (EDC) and N-hydroxysuccinimide (NHS) on line for final concentrations of EDC and NHS of 37.5 mg/mL and 5.8 mg/mL, respectively, for 420 s at a flow rate of 25 μL/min. Anti-VENUS antibody was first immobilized by capture onto a 500 KDa CM Dextran sensor chip (Reichert), proceeded by activation of the carboxymethylated dextran surface for mild amine coupling, followed by a final blocking injection of 1 M ethanolamine, pH 8.5. GluR2-VENUS (lysate of HEK293 cells stably transfected with GluR2-VENUS) was then captured for 900 s at a flow rate of 25 μL/min followed by a final blocking injection of 2% BSA, for 300 s at a flow rate of 5 μL/min.
The surface plasmon resonance affinity assay was carried out in a PBS buffer consisting of 0.05% Tween 20. For affinity measurements, compound solutions were prepared using ten three-fold serial dilutions in running buffer from a 10 μM top concentration (prepared from DMSO stocks) along with a zero (running buffer) control, mixed with 100 nM GAPDH peptide (Sigma Aldrich). A flow rate of 30 μl/min was used with a 420 s contact time (using high performance injection parameters) followed by a 120 s dissociation phase. Results were analyzed by subtracting the signals of the reference surface from the signals for the protein-bound surfaces and performing a solvent correction. Competitive binding responses were normalized throughout the screen to the percentage of inhibition of the respective small molecule compound. Three independent experiments were performed.
The binding affinity was measured using the surface plasmon resonance assay described above.
On the technique in general: SPR reads the build-up and loss of mass on a sensor chip optically.

Structures can show the parent of a compound that is named as a salt.

For the molecule `O=C(NC1CCCCC1)c1ccnc(N2Cc3cn(Cc4ccc(F)cc4)nc3C2)n1` [Compound 209, N-Cyclohexyl-2-(2-(4-fluorobenzyl)-2,6-dihydropyrrolo[3,4-c]pyrazol-5(4H)-yl)pyrimidine-4-carboxamide], the results for the IC50 (in assay [1]; at GluR2/GAPDH complex) were 66 nM and 99 nM, respectively.

With `O=C(c1ccnc(N2Cc3cn(Cc4ccc(F)cc4)nc3C2)n1)N1CCOCC1` [Compound 211, (2-(2-(4-Fluorobenzyl)-2,6-dihydropyrrolo[3,4-c]pyrazol-5(4H)-yl)pyrimidin-4-yl)(morpholino)methanone], the IC50 amounted to 44 nM in assay [1] and 34 nM at GluR2/GAPDH complex.

On to `CN1CCN(C(=O)c2ccnc(N3Cc4cn(Cc5ccc(F)cc5)nc4C3)n2)CC1` [Compound 212, (2-(2-(4-Fluorobenzyl)-2,6-dihydropyrrolo[3,4-c]pyrazol-5(4H)-yl)pyrimidin-4-yl)(4-methylpiperazin-1-yl)methanone], for which the IC50 in assay [1] was determined as 20 nM; at GluR2/GAPDH complex, 31 nM.

Take `O=C(NC1CCCC1)c1ccnc(N2Cc3cn(Cc4ccc(F)cc4)nc3C2)n1` [Compound 213]: the IC50 is 24 nM in assay [1] and 20 nM on GluR2/GAPDH complex.

`O=C(NC1CCCCC1)c1cncc(N2Cc3cn(Cc4ccc(F)cc4)nc3C2)n1` [Compound 214, N-Cyclohexyl-6-(2-(4-fluorobenzyl)-2,6-dihydropyrrolo[3,4-c]pyrazol-5(4H)-yl)pyrazine-2-carboxamide]: the values for the IC50 (in assay [1]; at GluR2/GAPDH complex) were 46 nM and 24 nM, respectively.

Regarding `O=C(NC1CCCC1)c1cccc(N2Cc3cn(Cc4ccc(F)cc4)nc3C2)c1` [Compound 215, N-Cyclopentyl-3-(2-(4-fluorobenzyl)-2,6-dihydropyrrolo[3,4-c]pyrazol-5(4H)-yl)benzamide], the figures for the IC50 (in assay [1]; at GluR2/GAPDH complex) were 3.5 nM and 48 nM, respectively.

In the case of `CN(C)C(=O)c1cccc(N2Cc3cn(Cc4ccc(F)cc4)nc3C2)c1` [Compound 217, 3-(2-(4-Fluorobenzyl)-2,6-dihydropyrrolo[3,4-c]pyrazol-5(4H)-yl)-N,N-dimethylbenzamide], the IC50 in assay [1] is 6.7 nM; on GluR2/GAPDH complex, 67 nM.

In the case of `CN1CCN(C(=O)c2cccc(N3Cc4cn(Cc5ccc(F)cc5)nc4C3)c2)CC1` [Compound 218, (3-(2-(4-Fluorobenzyl)-2,6-dihydropyrrolo[3,4-c]pyrazol-5(4H)-yl)phenyl)(4-methylpiperazin-1-yl)methanone], the IC50 was found to be 33 nM in assay [1] and 99 nM on GluR2/GAPDH complex.

Consider `O=C(NCC(F)(F)F)c1cccc(N2Cc3cn(Cc4ccc(F)cc4)nc3C2)c1` [Compound 219, 3-(2-(4-Fluorobenzyl)-2,6-dihydropyrrolo[3,4-c]pyrazol-5(4H)-yl)-N-(2,2,2-trifluoroethyl)benzamide], for which the IC50 was found to be 28 nM in assay [1] and 14 nM at GluR2/GAPDH complex.

On to `O=C(c1cccc(N2Cc3cn(Cc4ccc(F)cc4)nc3C2)c1)N1CCNCC1` [Compound 220, (3-(2-(4-Fluorobenzyl)-2,6-dihydropyrrolo[3,4-c]pyrazol-5(4H)-yl)phenyl)(piperazin-1-yl)methanone hydrochloride], for which the IC50 is 15 nM in assay [1] and 85 nM at GluR2/GAPDH complex.

As to `CCN(CC)C(=O)c1cncc(N2Cc3cn(Cc4ccc(F)cc4)nc3C2)n1` [Compound 231, N,N-Diethyl-6-(2-(4-fluorobenzyl)-2,6-dihydropyrrolo[3,4-c]pyrazol-5(4H)-yl)pyrazine-2-carboxamide], the IC50 in assay [1] stood at 250 nM; on GluR2/GAPDH complex it was 86 nM.

Regarding `COc1ccc(Cn2cc3c(n2)CN(c2cncc(C(=O)N(C)C)n2)C3)cc1` [Compound 232, 6-(2-(4-Methoxybenzyl)-2,6-dihydropyrrolo[3,4-c]pyrazol-5(4H)-yl)-N,N-dimethylpyrazine-2-carboxamide], the IC50 in assay [1] was 54 nM; on GluR2/GAPDH complex it was 88 nM.

For `COc1ccc(Cn2cc3c(n2)CN(c2cccc(C(=O)N(C)C)c2)C3)cc1` [Compound 233, 3-(2-(4-Methoxybenzyl)-2,6-dihydropyrrolo[3,4-c]pyrazol-5(4H)-yl)-N,N-dimethylbenzamide], the IC50 in assay [1] is 62 nM; at GluR2/GAPDH complex it was 33 nM.

With `Cc1ccc(Cn2cc3c(n2)CN(c2cncc(C(=O)N(C)C)n2)C3)cc1` [Compound 234, N,N-Dimethyl-6-(2-(4-methylbenzyl)-2,6-dihydropyrrolo[3,4-c]pyrazol-5(4H)-yl)pyrazine-2-carboxamide], the results for the IC50 (in assay [1]; on GluR2/GAPDH complex) were 114 nM and 139 nM, respectively.

`Cc1ccc(Cn2cc3c(n2)CN(c2cccc(C(=O)N(C)C)c2)C3)cc1` [Compound 235, N,N-Dimethyl-3-(2-(4-methylbenzyl)-2,6-dihydropyrrolo[3,4-c]pyrazol-5(4H)-yl)benzamide]: the IC50 was 656 nM in assay [1] and 1070 nM on GluR2/GAPDH complex.

As to `CN(C)C(=O)c1cncc(N2Cc3cn(Cc4cccc(F)c4)nc3C2)n1` [Compound 236, 6-(2-(3-Fluorobenzyl)-2,6-dihydropyrrolo[3,4-c]pyrazol-5(4H)-yl)-N,N-dimethylpyrazine-2-carboxamide], the IC50 in assay [1] amounted to 5000 nM; at GluR2/GAPDH complex, 275 nM.

Turning to `CN(C)C(=O)c1cccc(N2Cc3cn(Cc4cccc(F)c4)nc3C2)c1` [Compound 237, 3-(2-(3-Fluorobenzyl)-2,6-dihydropyrrolo[3,4-c]pyrazol-5(4H)-yl)-N,N-dimethylbenzamide], the IC50 was 47 nM in assay [1] and 30 nM on GluR2/GAPDH complex.

Regarding `CN(C)C(=O)c1cncc(N2Cc3cn(CC4CCCCC4)nc3C2)n1` [Compound 238, 6-(2-(Cyclohexylmethyl)-2,6-dihydropyrrolo[3,4-c]pyrazol-5(4H)-yl)-N,N-dimethylpyrazine-2-carboxamide], the IC50 in assay [1] is 167 nM; on GluR2/GAPDH complex, 102 nM.

For `CN(C)C(=O)c1cccc(N2Cc3cn(CC4CCCCC4)nc3C2)c1` [Compound 239, 3-(2-(Cyclohexylmethyl)-2,6-dihydropyrrolo[3,4-c]pyrazol-5(4H)-yl)-N,N-dimethylbenzamide], the IC50 in assay [1] is 26 nM; at GluR2/GAPDH complex, 41 nM.

For the molecule `N#Cc1cccc(N2Cc3cn(Cc4ccc(F)cc4)nc3C2)c1` [Compound 240, 3-(2-(4-Fluorobenzyl)-2,6-dihydropyrrolo[3,4-c]pyrazol-5(4H)-yl)benzonitrile], the IC50 in assay [1] is 35 nM; on GluR2/GAPDH complex it was 26 nM.

For `N#Cc1ccnc(N2Cc3cn(Cc4ccc(F)cc4)nc3C2)n1` [Compound 241, 2-(2-(4-Fluorobenzyl)-2,6-dihydropyrrolo[3,4-c]pyrazol-5(4H)-yl)pyrimidine-4-carbonitrile], the results for the IC50 (in assay [1]; on GluR2/GAPDH complex) were 72 nM and 20 nM, respectively.

Consider `O=C(c1cccc(N2Cc3cn(Cc4ccc(F)cc4)nc3C2)c1)N1CCCC1` [Compound 243, (3-(2-(4-Fluorobenzyl)-2,6-dihydropyrrolo[3,4-c]pyrazol-5(4H)-yl)phenyl)(pyrrolidin-1-yl)methanone], for which the IC50 is 1150 nM in assay [1] and 130 nM at GluR2/GAPDH complex.

As to `O=C(c1ccnc(N2Cc3cn(Cc4ccc(F)cc4)nc3C2)n1)N1CCCCC1` [Compound 244, (2-(2-(4-Fluorobenzyl)-2,6-dihydropyrrolo[3,4-c]pyrazol-5(4H)-yl)pyrimidin-4-yl)(piperidin-1-yl)methanone], the IC50 (in assay [1]; at GluR2/GAPDH complex) was 2.4 nM throughout.
